This is an account of results in ChEMBL document CHEMBL1155139 (Antimicrob Agents Chemother, 2007).

For test [1], the system named is Plasmodium falciparum. Put plainly: Antimalarial activity against Plasmodium falciparum FcB1. The class given is functional, organism-based. The conditions noted are these: FcB1/Columbia.
In test [2] the test system is Plasmodium falciparum. Put plainly: Antimalarial activity against Plasmodium falciparum K1. Type of test: functional, organism-based.
Test [3] concerns Plasmodium berghei. Put plainly: Antimalarial activity as reduced parasitaemia at day 3 against Plasmodium berghei infected MORO mice (Mus musculus) at 100 mg/kg subcutaneous dose. The class given is functional. Set-up: scale not given: the % may be the effect or the level left.
In test [4] the test system is Plasmodium falciparum. Put plainly: Antimalarial activity against Plasmodium falciparum NF54. Type of test: functional, organism-based.
For test [5], the system named is Plasmodium berghei. The test can be described thus: Antimalarial activity as reduced parasitaemia at day 3 against Plasmodium berghei infected MORO mice (Mus musculus) at 100 mg/kg peroral dose. The class given is functional. Set-up: scale not given: the % may be the effect or the level left. The conditions noted are these: route oral.

Converted amounts (≈) assume the structure as drawn.

The term IC50 denotes the concentration needed to halve the response being measured. Consider `CCCC1(CCC)OOC(CCC)(CCC)OO1`, for which the half-maximal inhibitory concentration (IC50) came to 0.048 µg/mL (≈ 0.184 µM) with Plasmodium falciparum [1], 0.04 µg/mL (≈ 0.154 µM) with Plasmodium falciparum [2] and 0.023 µg/mL (≈ 0.0883 µM) in the test with Plasmodium falciparum [4]. Moreover, the figures for the Activity with Plasmodium berghei [3] and in the test with Plasmodium berghei [5] were 0% and 21%, respectively.
Consider `C[C@@H]1CCCCC12OOC1(CCCC[C@@H]1C)OO2` (stereo partly drawn) [WR-148999], for which the Activity with Plasmodium berghei [3] is recorded as 99.99%; with Plasmodium berghei [5], 99.7%.
For `C1CCCC2(CC1)OOC1(CCCCCC1)OO2`, the IC50 is 0.021 µg/mL (≈ 0.0819 µM) in the test with Plasmodium falciparum [1], 0.014 µg/mL (≈ 0.0546 µM) with Plasmodium falciparum [2] and 0.011 µg/mL (≈ 0.0429 µM) in the test with Plasmodium falciparum [4]. For the same molecule, the Activity in the test with Plasmodium berghei [3] is given as 56%; in the test on Plasmodium berghei [5] it was 60%.
For `CCCCC1(CCCC)OOC(CCCC)(CCCC)OO1`, the IC50 with Plasmodium falciparum [2] came out at 0.071 µg/mL (≈ 0.224 µM); in the test on Plasmodium falciparum [4] it was 0.088 µg/mL (≈ 0.278 µM). Further, the Activity in the test with Plasmodium berghei [3] amounted to 5%; in the test on Plasmodium berghei [5], 47%.
Turning to `CCCCC1(CCCC)OOC(CCCC)(CCCC)OOC(CCCC)(CCCC)OO1`, the IC50 in the test with Plasmodium falciparum [2] and in the test on Plasmodium falciparum [4] was > 10 µg/mL each time.
On to `C1CCC2(CC1)COC1(CCCCC1)OC2`, for which the IC50 with Plasmodium falciparum [2] and in the test on Plasmodium falciparum [4] was > 10 µg/mL each time.
For the molecule `C[C@@H]1CC[C@H]2[C@@H](C)C(=O)O[C@@H]3O[C@@]4(C)CC[C@@H]1[C@]32OO4` [ARTEMISININ], the Activity in the test with Plasmodium berghei [3] was 99.99%; in the test with Plasmodium berghei [5] it was 98%. This molecule also yielded an IC50 in the test with Plasmodium falciparum [4] of 0.0034 µg/mL (≈ 0.012 µM).
